According to patent US9775857B2, “Lignans isolated from Lasia spinosa (L.) Thwait” (Hong Kong Baptist University, priority 2015, dated 2017):
Converted amounts (≈) assume the structure as drawn. “Also recorded” adds a separate entry of the source.

Tests used:
KYSE-520 = test: Cytotoxicity assay (MTT), KYSE-520; assay type: cell-based; details: human esophageal carcinoma cells, 1.56-50 μg/mL tested; for IC50: Homo sapiens, KYSE-520, 48 h, read-out: Cytotoxicity against KYSE-520, IC50
Protocol: (§1) Test compounds were dissolved in dimethyl sulfoxide (DMSO) to make stock solutions and further diluted in culture medium. Human esophageal carcinoma cell lines (KYSE-70, KYSE-150, KYSE-450 and KYSE-520) were cultured in RPMI 1640 or DMEM medium containing 10% fetal bovine serum and 1% antibiotics (Penicillin and strep). 3×10^3 cells/well were seeded in a 96-well plate and allowed to attach to the plate overnight. After the recovery, cells were treated with 1.56, 3.125, 6.25, 12.5, 25, 50 μg/mL of compounds in culture medium for 48 h. Then, 20 μL of MTT (5 mg/mL stock in PBS) per well was added into the medium (200 μL) and incubated for 4 h at 37° C. Finally, the culture medium was removed and 200 μL of DMSO were added. Absorbance of the solution was measured using microplate reader spectrophotometer (Bio-Rad Laboratories, Inc., Hercules, Calif.) at a wavelength of 570 nm.

KYSE-70 = test: Cytotoxicity assay (MTT), KYSE-70; assay type: cell-based; details: 48 h, 1.56-50 μg/mL tested; for IC50: KYSE-70, human esophageal carcinoma cells, read-out: Cytotoxicity against KYSE-70, IC50; for Cytotoxicity against KYSE-70, IC50: human esophageal carcinoma cells
Protocol: as §1

KYSE-450 = test: Cytotoxicity assay (MTT), KYSE-450; assay type: cell-based; details: 48 h, 1.56-50 μg/mL tested; for IC50: KYSE-450, human esophageal carcinoma cells, read-out: Cytotoxicity against KYSE-450, IC50; for Cytotoxicity against KYSE-450, IC50: human esophageal carcinoma cells
Protocol: as §1

KYSE-150 = test: Cytotoxicity assay (MTT), KYSE-150; assay type: cell-based; details: human esophageal carcinoma cells, 1.56-50 μg/mL tested; for IC50: Homo sapiens, KYSE-150, 48 h, read-out: Cytotoxicity against KYSE-150, IC50; for Cytotoxicity against KYSE-150, IC50: 48 h
Protocol: as §1

KYSE-150 cells = test: Tumor xenograft mouse model; assay type: in vivo, nude female mice; details: KYSE-150 xenograft
Protocol: The tumor xenograft mice were treated with a vehicle or compound 9 at 15 or 30 mg/kg once a day […] for 12 days. Tumor size was measured every two days and body weight was measured every day. On day 13, the mice were sacrificed, and tumor weight was measured (n=5, *p<0.05, **p<0.01, ***p<0.001, ****p<0.0001).
Six to eight weeks old nude female mice weighing about 16-20 g were purchased from the Laboratory Animal Services Center, the Chinese University of Hong Kong, and 2×10^6 KYSE-150 cells in […] saline were injected subcutaneously into the flanks of the mice. When the tumor volume reached about 100 mm^3, the mice were randomly divided into three groups (n=5). The control group was administered with saline, while compound 9 treatment groups were given different doses of 9 (15 or 30 mg/kg, respectively) by intraperitoneal injection. Tumor volume were measured by vernier caliper every two days for 12 days, and calculated according to the formula: Volume=(width)^2×length/2. At the end of observation, mice were killed to remove the tumors. Then the samples were fixed in 4% paraformaldehyde and embedded in paraffin. Five-micro-meter sections were stained with hematoxylin/eosin according to a standard procedure. Animal protocol was approved by the committee for Care of Laboratory Animals in the School of Chinese Medicine at the Hong Kong Baptist University.

[1] = 15 or 30 mg/kg once a day for 12 days

| SMILES | IC50 (KYSE-520) [µg/mL] | Cytotoxicity against KYSE-520, IC50 (KYSE-520; 48 h) [μg/mL] | IC50 (KYSE-70) [µg/mL] | IC50 (KYSE-450) [µg/mL] | IC50 (KYSE-150) [µg/mL] | Cytotoxicity against KYSE-150, IC50 (KYSE-150) [μg/mL] | body weight (KYSE-150 cells; [1]) | toxic death (KYSE-150 cells; [1]) | weight of tumor (KYSE-150 cells; 15 or 30 mg/kg once a day for 12 days, day 13) | tumor growth / size of tumor (KYSE-150 cells; 15 or 30 mg/kg once a day for 12 days, vs control) | H&E staining of the tumor tissue (histological manifestation) (KYSE-150 cells; 15 or 30 mg/kg, vs control (orderly and tightly)) | Cytotoxicity against KYSE-70, IC50 (KYSE-70) [μg/mL] | Cytotoxicity against KYSE-70, IC50 (KYSE-70; listed as compound 2) [μg/mL] | Cytotoxicity against KYSE-450, IC50 (KYSE-450) [μg/mL] | Cytotoxicity against KYSE-450, IC50 (KYSE-450; listed as compound 2) [μg/mL] | Cytotoxicity against KYSE-150, IC50 (KYSE-150; listed as compound 2) [μg/mL] |
| --- | --- | --- | --- | --- | --- | --- | --- | --- | --- | --- | --- | --- | --- | --- | --- | --- |
| COc1cc([C@H]2Oc3c(OC)cc(CCCO)cc3[C@@H]2CO)ccc1O [Compound 8, Dihydrodehydrodiconifery Alcohol] | ~30 (≈ 83.2 µM) | 37.34 | > 50 | > 50 | ~30 (≈ 83.2 µM) | 31.86 | – | – | – | – | – | – | – | – | – | – |
| COc1cc([C@H]2OC[C@H]3[C@@H]2CO[C@@H]3c2cc(OC)c(O)c(OC)c2)cc(OC)c1O [Compound 9, Syringaresinol] | > 50 | – | > 50 | > 50 | > 50 | – | suppresses the body weight; also recorded: less body weight loss | no toxic death | suppresses the weight of tumor | suppresses the size of tumor; also recorded: significant tumor growth delay | obviously loose and messy | – | – | – | – | – |
| COc1cc(CC(C)C(O)(CO)Cc2cc(OC)c(O)c(OC)c2)ccc1O (stereo not shown) [Compound 3, 2-(4-Hydroxy-3,5-dimethoxybenzyl)-3-(4-hydroxy-3-methoxybenzyl)-1,2-butanediol] | > 50 | – | > 50 | > 50 | 34.5 (≈ 87.9 µM) | – | – | – | – | – | – | – | – | – | – | – |
| COc1cc(C[C@@H](CO)[C@H](CO)Cc2cc(OC)c(O)c(OC)c2)cc(OC)c1O [Compound 2, 5,5′-Dimethoxysecoiso-lariciresinol] | – | – | – | – | – | 49.63 | – | – | – | – | – | 47.22 | ~50 | 39.21 | ~50 | ~50 |
